The source of these data is patent US20090130165A1, “MIF Inhibitors” (Cortical Pty Ltd, priority 2005, published 2009).

For orientation: inhibition means how much of the control response was suppressed. By Kd is commonly meant the constant that tells how readily two partners part at equilibrium. As a reminder, the IC50 is the concentration at which inhibition is half-maximal. Broadly, the solubility is the dissolved amount per volume that the medium holds.

Where two headings read alike, the source gives them in different places. Some results are limits rather than exact numbers.

One data set deals with C57Bl/6j mice. As to the kind of experiment: In vivo assay of MIF antagonism: murine endotoxic shock model, serum TNF. More on the design: species or system mouse. The settings on record: intra-peritoneal, 10, 1 and 0.1 mg/kg at 24 hours and 1 hour before LPS 1 mg/kg (FIG. 3). How it is done: The activities of compounds were studied in the murine endotoxic shock model. This model has been previously shown to be dependent on MIF^(14). Administration of a compound which inhibits the cytokine activity of MIF would be expected to result hi a reduction in serum level s of the pro-inflammatory cytokine TNF.
Endotoxaemia was induced by intra-peritoneal Injection of C57Bl/6j mice with lipopolysaccharide (LPS) (1 mg/kg) in 200 μl saline. Animals were treated with either a saline solution (control) only, or LPS with vehicle or compounds B1 and A3 in vehicle at doses of 10, 1 and 0.1 mg/kg body weight, administered by intra-peritoncal injection at 24 hours and 1 hour before intra-peritoneal LPS injection. After 1 hour mice were humanely killed by CO2 inhalation then neck dislocation. Serum was obtained from blood obtained by cardiac puncture prior to death and measured for TNF levels by ELISA according to the manufacturer's instructions.

The subject of data set [1] is IL-1 induced COX-2 expression in S112 human dermal fibroblasts. As to the kind of experiment: Inhibition of interleukin-1 induction of cyclooxygenase-2 expression in S112 human dermal fibroblasts. The format is cell-based. The settings on record: S112 cells, up to 100 μM compound, IL-1 0.1 ng/ml, 6 hours (FIG. 2). From the text: The activity of compounds was studied in a bioassay for MIF-dependent cytokine effects of human S112 dermal fibroblasts. In these cells the induction of the expression of cyclooxygenase-2 (COX-2) protein by interleukin 1 (IL-1) is dependent upon the presence of endogenous MIF^(13). The expression of COX2 proteins is therefore sensitive to depiction of endogenous MIF by neutralizing antibody, gene knockout of targeting with small molecule inhibitors. A compound with the ability to inhibit the biological activity of MIF would therefore inhibit die activation of COX2 expression hi response to IL-1.
S112 human dermal fibroblasts were propagated in RPMI/10% foetal calf serum (FCS). Prior to experimentation, cells were seeded at 10^5 cells/ml in RPMI/0.1% BSA for 18 hours. Cells were treated with recombinant human IL-1 (0.1 ng/ml) and with each compound at concentrations ranging up to 100 μM. A control was treated only with recombinant human TL-1 (0.1 ng/ml) and vehicle (DMSO). After 6 hours, cells were collected and intracellular COX-2 protein determined by permeabilisation flow cytometry. […] Cellular fluorescence was determined using a flow cytometer. At least 5000 events were counted for each reading, each of which was performed in duplicate, and the results expressed in mean fluorescence intensity (MFI) after subtraction of negative control-labelled cell fluorescence.

Data set [2] has as its system Recombinant human MIF-induced leukocyte-endothelial cell adhesion in mice. As to the kind of experiment: rhMIF-induced leukocyte adhesion, intravital microscopy of cremaster muscle. The format is in vivo, mouse. The settings on record: 30 mg/kg intraperitoneal 10 minutes prior to intrascrotal MIF, 4 hours (FIG. 5). From the text:
As will be known to those skilled in the art, the adherence of leukocytes to the endothelium in vivo can be studied using the technique of intravital microscopy^(18,19). As MIF induces leukocyte adherence to vascular endothelium as measured using intravital microscopy, a compound inhibiting the Cytokine or biological activity of MIF might be expected to inhibit the effects of MIF observable using intravital microscopy.
Mice were anesthetised with ketamine/xylazine, and the cremaster muscle was exteriorized onto an optically-clear viewing pedestal. The cremasteric microcirculation was visualized using an intravital microscope (Axioplan 2 Imaging; Carl Zeiss, Australia) with a 20× objective lens (LD Achroplan 20×/0.40 NA, Carl Zeiss, Australia) and a 10× eyepiece. Three-five postcapillary venules (25-40 μm in diameter) were examined for each experiment. Images were visualized using a video camera and recorded on video-tape for subsequent playback analysis. Recombinant human MIF ([…]) was injected intrascrotally in 150 μL saline, prior to intravital microscopy 4 hours later. Leukocyte-endothelial cell adhesion, was assessed as described by Gregory et al^(19). Compound 13 at a dose of 30 mg/kg or vehicle were administered by intraperitoneal injection 10 minutes prior to intrascrotal injection of MIF.

A further data set relates to mice. As to the kind of experiment: Delayed-type hypersensitivity reaction to mBSA, footpad swelling. The format is in vivo, mouse. The following applies: 5 and 15 mg/kg/24 h IP, twice daily for 7 days prior to mBSA challenge and further 24 h (FIG. 4). An excerpt:
Delayed-type hypersensitivity reactions, which are initiated by T lymphocyte responses to recall antigens and mediated by many cell types including macrophages, are known to be dependent on the cytokine or biological activity of MIF^(16,17). For example, an anti-MIF monoclonal antibody suppresses delayed-type hypersensitivity reactions in vivo to methylated bovine scrum albumin (mBSA) injected into the skin of animals preimmunised with mBSA^(16). A compound inhibiting die cytokine or biological function of MIF might be expected to inhibit delayed-type hypersensitivity reactions in vivo.
Mice were immunised on day 0 with 200 μg of methylated BSA (mBSA; Sigma Chemical Co., Castle Hill, Australia) emulsified in 0.2 ml of Freund's complete adjuvant (CFA; Sigma) injected subcutaneously in the flank skin. At day 7, mice were given 100 μg mBSA in 0.1 ml CFA by intradermal injection at the base of the tail. […] Mice were killed 24 h later and footpad swelling quantified using micro calipers (Mitutoyo, Kawasaki-shi, Japan). […] Results were expressed as the difference in footpad swelling between mBSA and saline-injected footpads, and expressed as change in footpad thickness (mm). […] Treatment with compound 13 continued for a further 24 h and changes in footpad thickness relative to control paws were measured at that time.

The subject of data set [3] is LPS-induced IL-6 production in RAW264.7 mouse macrophage cell line. The data set can be described thus: Inhibition of LPS-induced production of IL-6 in RAW264.7 macrophages. Format: cell-based. The following applies: 50 uM compound, 100 ng/ml LPS 4 hr, RAW264.7 cells, relative to LPS+DMSO control. How it is done:
MIF is an important factor in the innate immune response to toxins such as the bacterial endotoxin lipopolysaccharide (LPS). […] A compound with the ability to inhibit the biological activity of MIF would therefore inhibit the activation of cytokine production by macrophages in response to LPS. The RAW264.7 mouse macrophage cell line was propagated in DMEM/10% foetal calf serum (FCS) at 37° C. in 5% CO2. 24 hr prior to assay cells were seeded in 96-well tissue culture plates. Cells were allowed to adhere for 4 hr prior to transfer to DMEM/0.5% FCS for 18 hr. Cells were then treated with 50 uM compound in DMSO for 30 min prior to stimulation for 4 hr with 100 ng/ml LPS. Cell culture supernatants were then collected from each well and assayed for IL-6 levels by ELISA (R&D Systems) according to the manufacturer's instructions.

For data set [4], the target named is T1, immobilized recombinant MIF protein (Homo sapiens, UniProt P14174).
T1 sequence (P14174 2-115 limits assumed): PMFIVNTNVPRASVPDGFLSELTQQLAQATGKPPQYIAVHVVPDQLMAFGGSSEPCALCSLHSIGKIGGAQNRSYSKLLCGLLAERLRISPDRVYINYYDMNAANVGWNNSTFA
The data set can be described thus: Interaction of compounds with MIF protein by Surface Plasmon Resonance (Biacore S51). The settings on record: SPR; for kon / Kinetics Method Kd (10^−3 s^−1) / Kd: immobilized MIF; for kon: association rate, read-out: Kinetics Method Ka (10^3 M^−1s^−1); for Kinetics Method Kd (10^−3 s^−1): dissociation rate; for equilibrium dissociation constant (KD) values, in words: immobilized recombinant MIF. The format is binding. How it is done: The interaction of compounds with MIF protein was characterized by Surface Plasmon Resonance (SPR) analysis using an S51 (Biacore International AB) automated small molecule biosensor assay system. Recombinant MIF protein was immobilized on a carboxymethyl dextran biosensor chip using amine coupling chemistry. Compound binding to the immobilized MIF protein was measured at 11 concentrations up to 100 uM (in duplicate), with corrections for the DMSO used as a solvent at a final concentration of 5%. The change in SPR output relative to that of a control underivatized reference spot was recorded over time. The affinity and stoichiometry of interaction was calculated using steady state and/or kinetics evaluation methods with software supplied by the manufacturer.

The target in data set [5] is T2, Recombinant human MIF protein (Homo sapiens, UniProt P14174).
T2 sequence (P14174 2-115 limits assumed): T1 sequence (P14174 2-115 limits assumed)
As to the kind of experiment: Inhibition of MIF tautisomerase activity (L-dopachrome). Format: biochemical. The following applies: mean±standard deviation of 2-4 experiments. As for the experimental part:
MIF protein has the ability in vitro to catalyze the tautisomerization of dopachrome^(15).
Recombinant human MIF protein was pre-incubated with compounds as indicated prior to the addition of L-dopachrome substrate. Tautomerase activity was determined by measurement of die decrease in absorbance at 475 nm after 2 min. […]

The subject of data set [6] is LPS-induced IL-6 production in RAW264.7 mouse macrophage cell line. As to the kind of experiment: Inhibition of LPS-induced production of IL-6 in RAW264.7 macrophages. The settings on record: RAW264.7 cells, up to 100 μM compound (FIG. 1). Format: cell-based.
Data set [7] is described as follows: Lower limits of aqueous solubility by nephelometry. The following applies: phosphate-buffered saline with 0.005% (v/v) P20 and 5% DMSO, aqueous with cosolvent or surfactant or cyclodextrin, kinetic from dmso stock, 0.005% (v/v) P20, 5% DMSO, read-out: Solubility Lower Limit Range. Format: physicochemical. How it is done: Lower limits of aqueous compound solubility were determined in a nepholometer in phosphate-buffered saline containing 0.005% (v/v) P20 and a final concentration of 5% DMSO. Briefly, compounds were initially dissolved in DMSO as a 10 mM stock solution and diluted to 1 mM and 0.5 mM working solutions with neat DMSO. The compounds were then titrated in DMSO and a constant volume of DMSO stock added to filtered PBS/P20 solution so that the final DMSO concentration was 5%. The solubility was then determined in clear, flat-bottom 96-well plates using the nephelometer and reported as the concentration range at which the compound begins to precipitate from solution.

Setting [8] is: kinetics evaluation, read-out: Kinetics Method Kd.
Where [9] appears, read: steady state evaluation, 5% DMSO, read-out: Steady State Method (equilibrium dissociation constant KD).

Turning to `O=C(O)CCSCC(=O)c1ccc2c(c1)CC(=O)N2` [Compound 2], the “suppression of LPS-induced serum TNF levels, in words” value (from here on “suppression”) with C57Bl/6j mice is on record as “significant dose-dependent suppression”. For the same compound, in data set [1], the “inhibition of IL-1 induced COX-2 expression, in words” value is listed as “dose-dependent inhibition”.

On to `O=C(O)CCSCC(=O)c1cc2c(cc1Cl)NC(=O)C2` [Compound 13, 3-((2-(6-chloro-2-oxo-2,3-dihydro-1H-indol-5-yl)-2-oxoethyl)thio)propanoic acid], for which the “reduction of MIF-induced leukocyte adhesion” value in [2] was “approximately 50%”. Moreover, the “suppression” value in the data set with C57Bl/6j mice is on record as “significant dose-dependent suppression”. In the data set on mice, the “inhibition of DTH reactions (change in footpad thickness), in words” value is “significant inhibition”. The inhibition at 50 µM in [3] was determined as 32 ± 30%. Besides, in data set [4], the kon was found to be 600 ± 200 M⁻¹ s⁻¹; the “Kinetics Method Kd (10^−3 s^−1)” value is recorded as 1.3 ± 0.3 10^−3 s^−1; the “equilibrium dissociation constant (KD) values, in words” value (“equilibrium dissociation constant” for short) is listed as “low micromolar range”. Besides, the Kd in [4] (setting [8]) stood at 2.5 ± 1.2 µM. Moreover, the Kd in data set [4] (setting [9]) stood at 10 ± 1.4 µM.

For the compound `CCCCSCC(=O)c1ccc2[nH]c(=O)sc2c1` [Compound 19, 6-((Butylthio)acetyl)-1,3-benzothiazol-2(3H)-one], in data set [5] (50 uM compound), the inhibition at 50 µM is 9 ± 4%. Also, the inhibition at 100 µM in [5] (100 uM compound) was found to be 17 ± 8%. The “suppression” value with C57Bl/6j mice was “significant dose-dependent suppression”. Moreover, the inhibition at 50 µM in [3] was 82 ± 13%. Besides, in data set [6] (Mus musculus), half-maximal inhibition (IC50) required 20 µM. For the same compound, in data set [6], the “inhibition of LPS-induced IL-6 production, in words” value is given as “dose-dependent inhibition”. Further, in data set [4], the kon was 2200 ± 1000 M⁻¹ s⁻¹; the “Kinetics Method Kd (10^−3 s^−1)” value was 6.2 ± 1.2 10^−3 s^−1; the “equilibrium dissociation constant” value was “low micromolar range”. The Kd in data set [4] (setting [8]) turned out to be 3.6 ± 1 µM. Further, the Kd in [4] (setting [9]) was found to be 27 ± 2.3 µM.

Turning to `O=C(O)CCSCC(=O)c1ccc2[nH]c(=O)[nH]c2c1` [Compound 4, 3-((2-oxo-2-(2-oxo-2,3-dihydro-1H-benzimidazol-5-yl)ethyl)thio)propanoic acid], the “suppression” value in the data set on C57Bl/6j mice was “significant dose-dependent suppression”. In data set [3], the inhibition at 50 µM was found to be 5 ± 49%. In [7], the solubility was greater than 140 µg/mL. Further, the Kd in [4] (setting [9]) came to 5.1 µM. Further, the “equilibrium dissociation constant” value in [4] is given as “low micromolar range”.
